Test results reported in patent US7943654B2, “1H-thieno[2,3-c]pyrazole compounds useful as kinase inhibitors” (Nerviano Medical Sciences S.R.L., priority 2005, dated 2011).

Key:
Aurora-2 = target: T1, Aurora-2 (Homo sapiens, UniProt O14965); assay: Inhibition assay of Aurora-2 activity (SPA); assay type: biochemical; conditions: 10 μM ATP, 60 minutes at room temperature
T1 sequence (O14965 1-403): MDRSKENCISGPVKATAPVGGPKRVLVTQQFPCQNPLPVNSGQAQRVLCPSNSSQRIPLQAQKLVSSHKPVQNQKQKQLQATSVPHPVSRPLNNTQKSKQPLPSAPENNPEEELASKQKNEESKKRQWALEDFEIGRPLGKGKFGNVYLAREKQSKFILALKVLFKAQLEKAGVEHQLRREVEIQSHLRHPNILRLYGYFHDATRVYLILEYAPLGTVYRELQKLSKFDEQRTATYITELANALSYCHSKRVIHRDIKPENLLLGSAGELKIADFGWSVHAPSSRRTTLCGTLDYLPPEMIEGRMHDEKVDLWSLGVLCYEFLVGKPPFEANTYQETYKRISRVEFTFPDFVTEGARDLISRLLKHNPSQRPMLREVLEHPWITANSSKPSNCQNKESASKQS
Method: The inhibiting activity and the potency of selected compounds is determined through a method of assay based on the use of the SPA technology (Amersham Pharmacia Biotech).
The assay consists of the transfer of radioactivity labelled phosphate moiety by the kinase to a biotinylated substrate. The resulting 33P-labelled biotinylated product is allowed to bind to streptavidin-coated SPA beads (biotin capacity 130 pmol/mg), and light emitted was measured in a scintillation counter.
Inhibition Assay of Aurora-2 Activity
Kinase reaction: 8 μM biotinylated peptide (4 repeats of LRRWSLG) (SEQ ID NO:2), 10 μM ATP (0.5 uCiP^33 γ-ATP), 7.5 ng Aurora 2, inhibitor in a final volume of 30 μl buffer (HEPES 50 mM pH 7.0, MgCl2 10 mM, 1 mM DTT, 0.2 mg/mL BSA, 3 μM orthovanadate) were added to each well of a 96 U bottom well plate. After 60 minutes at room temperature incubation, reaction was stopped and biotinylated peptide captured by adding 100 μl of bead suspension.
Stratification: 100 μl of CsCl 5 M were added to each well and let stand 4 hour before radioactivity was counted in the Top-Count instrument.
IC50 determination: inhibitors were tested at different concentrations ranging from 0.0015 to 10 μM. […]

[1] = test system: human colon cancer cell line HCT-116; assay: In vitro cell proliferation assay; assay type: cell-based; conditions: HCT-116, 72 hours of treatment, cell count, read-out: Cell Antiproliferation IC50
Method: The compounds of the invention were further tested, in vitro to assess the anti-proliferative effect onto cell cultures.
In Vitro Cell Proliferation Assay
The human colon cancer cell line HCT-116 was seeded at 5000 cells/cm^2 in 24 wells plate (Costar) using F12 medium (Gibco) supplemented with 10% FCS (EuroClone, Italy) 2 mM L-glutamine and 1% penicillin/streptomycin and maintained at 37° C., 5% CO2 and 96% relative humidity. The following day, plates were treated in duplicates with 5 ul of an appropriate dilution of compounds starting from a 10 mM stock in DMSO. Two untreated control wells were included in each plate. After 72 hours of treatment, medium was withdrawn and cells detached from each well using 0.5 mL of 0.05% (w/v) Trypsin, 0.02% (w/v) EDTA (Gibco). Samples were diluted with 9.5 mL of Isoton (Coulter) and counted using a Multisizer 3 cell counter (Beckman Coulter). Data were evaluated as percent of the control wells: % of CTR=(Treated−Blank)/(Control−Blank).
IC50 values were calculated by LSW/Data Analysis using Microsoft Excel sigmoidal curve fitting.

IC50 (Aurora-2) [nM]	IC50 [1] [nM]	Structure (SMILES)
6	7	CC(C)(NC(=O)c1cc2c(NC(=O)c3ccccc3NC(=O)c3ccc[nH]3)n[nH]c2s1)c1ccccc1 [Compound (1), 3-{2-[(1H-pyrrole-2-carbonyl)-amino]-benzoylamino}-1H-thieno[2,3-c]pyrazole-5-carboxylic acid (1-methyl-1-phenyl-ethyl)-amide]
12	54	CC(C)(NC(=O)c1cc2c(NC(=O)c3ccccc3NC(=O)c3ccc[nH]3)n[nH]c2s1)c1ccccc1F [Compound (2), 3-{2-[(1H-pyrrole-2-carbonyl)-amino]-benzoylamino}-1H-thieno[2,3-c]pyrazole-5-carboxylic acid [1-(2-fluoro-phenyl)-1-methyl-ethyl]-amide]
